In paper PMC8476755 (Frontiers in Chemistry, 2021):
Residue numbers refer to the chain shown, from its start. Where two headings read alike, the source gives them in different places.

Assays:
[1] = biological target: T1, BGT1 (Homo sapiens, UniProt P48065); assay: FLIPR membrane potential (FMP) assay, CHO cells stably expressing BGT1; type: cell-based; conditions: for Inhibitor activity: in the presence of GABA EC50 concentration ([…] µM); for Substrate activity (translocation by BGT1): tested as substrates, without GABA; for Kb: Gaddum-Schild analysis
T1 construct: expressed in transfected cells
T1 sequence (P48065 1-614): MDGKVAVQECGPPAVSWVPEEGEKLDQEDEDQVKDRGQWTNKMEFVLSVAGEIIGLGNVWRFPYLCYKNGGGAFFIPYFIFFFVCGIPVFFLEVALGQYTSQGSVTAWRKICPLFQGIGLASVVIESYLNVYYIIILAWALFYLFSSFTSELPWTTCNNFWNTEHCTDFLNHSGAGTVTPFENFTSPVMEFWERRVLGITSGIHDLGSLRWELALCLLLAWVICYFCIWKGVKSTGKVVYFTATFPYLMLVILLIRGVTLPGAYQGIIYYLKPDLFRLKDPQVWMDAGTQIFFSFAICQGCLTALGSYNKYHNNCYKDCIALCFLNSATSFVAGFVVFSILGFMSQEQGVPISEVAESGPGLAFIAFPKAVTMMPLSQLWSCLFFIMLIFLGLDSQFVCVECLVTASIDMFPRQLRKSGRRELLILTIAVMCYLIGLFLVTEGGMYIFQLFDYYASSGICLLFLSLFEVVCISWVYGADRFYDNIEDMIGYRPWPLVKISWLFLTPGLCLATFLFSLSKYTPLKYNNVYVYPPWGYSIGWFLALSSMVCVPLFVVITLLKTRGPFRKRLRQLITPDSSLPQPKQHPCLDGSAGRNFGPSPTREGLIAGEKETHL

[2] = biological target: T2, BGT1 Q299L (Homo sapiens, UniProt P48065, Q299L); assay: [3H]GABA uptake assay, transient expression in tsA201 cells; type: cell-based; conditions: for IC50: BGT1 Q299L, tsA201 cells
T2 construct: expressed in transfected cells; host or cells: tsA201 (transformed HEK293), transient
T2 sequence (P48065 1-614 Q299L): T1 sequence (P48065 1-614) with Q299L
Excerpt: The residue Q299 in human BGT1 corresponds to leucine in all other GATs (human, rat, mouse), while E52 corresponds to tyrosine in GAT1 (human, rat, mouse) but is conserved among GAT2, GAT3 and BGT1 (human, rat, mouse) (Figure 6A) ([Kickinger et al., 2019]).
FIGURE 6 (A) Pocket alignment of the orthosteric site of the four GAT subtypes colored according to the default ClustalX color scheme ([Larkin et al., 2007]). The pocket was defined as all corresponding GAT residues (15 in total) that are within a distance of 4.5 Å of the co-crystallized ligand leucine in the homologous LeuT crystal structure (PDB ID 2A65) ([Yamashita et al., 2005]) according to the alignment by Kickinger et al. ([Kickinger et al., 2019]). The mutated residues in BGT1 and the corresponding residues in GAT1-3 are indicated by a red box. The numbering of all residues within the orthosteric pocket can be found in the Supplementary Table S1.
The tsA201 cell line (a transformed HEK293 cell line), the Flp-In CHO cell lines stably expressing human (h) GATs and the HEK293 cell line stably expressing human α1β2γ2 GABAA receptors have been described previously and were cultured accordingly ([Al-Khawaja et al., 2014]; [Falk-Petersen et al., 2020]). The tsA201 cell line used for transient expression of hGATs was transfected with DNA constructs (8 μg per 10 cm plate) using 40 μL PolyFect transfection reagent according to the manufacturer’s protocol (Qiagen).
Briefly, cells were seeded in white 96-well plates (White Opaque Tissue Culture (TC) plated 96-well Microplate) pre-coated with PDL. Medium was removed on the following day and cells washed with 100 µL/well assay buffer (HBSS supplemented with 20 mM HEPES, 1 mM CaCl2 and 1 mM MgCl2, pH 7.4). […] The cells were washed 3 times with 100 µL/well ice-cold assay buffer, 150 µL/well MicroScint™20 was subsequently added before the plate was shaken for at least 1 h. The plate was counted in a Packard TopCounter microplate scintillation counter (PerkinElmer) for 3 min per well. […] Data presented is the pooled data of at least three independent experiments with three technical replicates if not stated otherwise in figure legends. Concentration–response curves were fitted by non-linear regression to the sigmoidal concentration-response model with GraphPad Prism (version 9.0.0, GraphPad Software, San Diego, CA, United States) as described ([Lie et al., 2020]).

[3] = tested on: BGT1; design: method as in Kobayashi et al., 2014; conditions: ref Kobayashi et al., 2014, cited from earlier work

| Compound | Inhibitor activity [1] | Substrate activity (translocation by BGT1) [1] | IC50 ([2]; read-out: IC50) [µM] | IC50 ([2]; read-out: pIC50 ± S.E.M. (converted)) [µM] | IC50 ([3]; BGT1 inhibition) [µM] | Higher activity for BGT1 compared to 1 [3] [times] | Higher activity for BGT1 than GAT3 ([3]; subtype-selectivity BGT1 vs GAT3) [times] | Kb ([1]; n = 4, read-out: KB) [µM] | Kb ([1]; read-out: pKB (converted)) [µM] | Preference for BGT1 over α1β2γ2 GABAA receptors ([1]; according to the FMP data) [times] | Schild slope (Gaddum-Schild analysis) ([1]; co-applied with increasing concentrations of GABA, n = 4) | Decrease in inhibitory activity compared to wildtype ([2]; BGT1 Q299L vs BGT1 wt) [times] |
| --- | --- | --- | --- | --- | --- | --- | --- | --- | --- | --- | --- | --- |
| CN[C@@]12CC[C@H](C(=O)O)[C@@H]1C2 [compound 2] | behaved as inhibitors | no increase in fluorescence signals | 59 | 50.1 |  |  |  |  |  |  |  |  |
| N[C@@]12CC[C@H](C(=O)O)[C@@H]1C2 [bicyclo-GABA, (1S,2S,5R)-5-aminobicyclo[3.1.0]hexane-2-carboxylic acid] | behaved as inhibitors | no increase in fluorescence signals | 48 |  | 0.59 | 9 | 129 | 0.47 | 0.398 | 13 | 1.02 | 32 |
